inhibition, Activity and IC50 data for 5 compounds are collected here from ChEMBL document CHEMBL5257047, “Synthesis and Anti-Inflammatory Activity of the Natural Cyclooxygenase-2 Inhibitor Axinelline A and Its Analogues” (J Nat Prod, 2023).

Each structure is given as a SMILES string. pIC50: −log10 of the molar value. Activity calls are given as the source filed them. No cut-off for these calls is given here.

In data set [1] the target is T1, Prostaglandin G/H synthase 2 (Homo sapiens) (UniProt P35354).
T1 sequence (whole entry): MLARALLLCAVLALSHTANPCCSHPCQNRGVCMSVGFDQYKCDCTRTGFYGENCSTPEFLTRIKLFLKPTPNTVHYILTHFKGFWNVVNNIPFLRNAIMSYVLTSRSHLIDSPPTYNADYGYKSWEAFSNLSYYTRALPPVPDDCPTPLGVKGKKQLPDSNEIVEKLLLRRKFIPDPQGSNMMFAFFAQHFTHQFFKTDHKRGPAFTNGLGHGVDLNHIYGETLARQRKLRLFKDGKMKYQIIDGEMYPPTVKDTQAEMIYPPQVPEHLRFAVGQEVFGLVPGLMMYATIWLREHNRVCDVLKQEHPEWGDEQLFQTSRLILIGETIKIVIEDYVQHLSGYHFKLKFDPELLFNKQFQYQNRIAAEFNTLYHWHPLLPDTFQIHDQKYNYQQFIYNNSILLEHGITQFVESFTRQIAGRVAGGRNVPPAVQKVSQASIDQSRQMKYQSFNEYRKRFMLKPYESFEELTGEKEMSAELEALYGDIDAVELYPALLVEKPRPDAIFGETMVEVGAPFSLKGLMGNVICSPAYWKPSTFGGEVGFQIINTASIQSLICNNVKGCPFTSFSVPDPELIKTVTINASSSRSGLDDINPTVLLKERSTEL
The data set is described as follows: Inhibition of recombinant human COX-2 using arachidonic acid as substrate at 10 uM preincubated with compound for 5 mins followed by substrate addition and measured after 2 mins by fluorescence spectrum analysis. Conditions: time 7.0 min.

Data set [2] concerns the target T2, Prostaglandin G/H synthase 1 (Ovis aries) (UniProt P05979).
T2 sequence (whole entry): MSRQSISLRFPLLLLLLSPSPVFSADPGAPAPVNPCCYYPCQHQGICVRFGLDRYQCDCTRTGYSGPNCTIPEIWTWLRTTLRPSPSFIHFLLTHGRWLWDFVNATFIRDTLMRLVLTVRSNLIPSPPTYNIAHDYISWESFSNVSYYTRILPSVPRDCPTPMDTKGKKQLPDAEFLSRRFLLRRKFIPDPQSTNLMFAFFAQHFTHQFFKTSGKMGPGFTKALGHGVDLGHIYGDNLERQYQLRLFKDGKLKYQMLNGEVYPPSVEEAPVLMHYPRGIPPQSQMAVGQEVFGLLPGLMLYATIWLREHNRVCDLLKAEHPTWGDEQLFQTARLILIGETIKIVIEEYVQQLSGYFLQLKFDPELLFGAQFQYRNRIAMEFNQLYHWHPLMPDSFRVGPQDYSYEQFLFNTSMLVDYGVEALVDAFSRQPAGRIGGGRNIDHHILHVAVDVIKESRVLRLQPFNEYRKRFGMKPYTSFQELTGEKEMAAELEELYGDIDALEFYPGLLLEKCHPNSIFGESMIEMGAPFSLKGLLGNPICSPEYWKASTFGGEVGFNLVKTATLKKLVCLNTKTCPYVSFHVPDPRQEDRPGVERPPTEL
The data set is described as follows: Inhibition of ovine COX-1 using arachidonic acid as substrate at 10 uM preincubated with compound for 5 mins followed by substrate addition and measured after 2 mins by fluorescence spectrum analysis. Conditions: time 7.0 min.

The target of data set [3] is T3, NF-kappa-B inhibitor alpha (Mus musculus) (UniProt Q9Z1E3).
T3 sequence (whole entry): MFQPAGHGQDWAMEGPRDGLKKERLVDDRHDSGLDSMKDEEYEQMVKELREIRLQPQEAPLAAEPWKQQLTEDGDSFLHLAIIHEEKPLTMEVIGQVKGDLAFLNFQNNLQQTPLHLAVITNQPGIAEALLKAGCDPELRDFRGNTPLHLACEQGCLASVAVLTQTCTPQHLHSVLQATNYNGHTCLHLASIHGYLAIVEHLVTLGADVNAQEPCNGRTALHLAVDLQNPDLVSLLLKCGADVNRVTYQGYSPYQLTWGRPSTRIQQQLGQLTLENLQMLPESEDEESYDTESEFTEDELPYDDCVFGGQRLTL
The data set can be described thus: Inhibition of IkappaBalpha phosphorylation in LPS-stimulated mouse RAW264.7 cells preincubated with compound for 1 hrs followed by LPS-stimulation and measured after 30 mins by Western blot analysis. Format: cell-based. Conditions: dose 2-30 µM, time 1.5 hrs. For orientation: Immunoblotting shows a protein as a band on a membrane.

Data set [4] has as its system RAW264.7. The data set is described as follows: Inhibition of IKK phosphorylation in LPS-stimulated mouse RAW264.7 cells preincubated with compound for 1 hrs followed by LPS-stimulation and measured after 30 mins by Western blot analysis. Format: cell-based. Particulars: dose 2-30 µM, time 1.5 hrs.
For data set [5], the system named is RAW264.7. The data set can be described thus: Anti-inflammatory activity in mouse RAW264.7 cells assessed as decrease in LPS-induced NO production incubated for 24 hrs by Griess reagent based assay. The format is functional, cell-based. Conditions: dose 2-30 µM. Background: The Griess reaction detects nitrite, a stable product of nitric oxide.
The subject of data set [6] is L02. The data set can be described thus: Cytotoxicity against human L02 cells assessed as reduction in cell survival upto 50 uM incubated for 48 to 72 hrs by MTT assay. Format: toxicity, cell-based. Particulars: l02, 50 µM, time 48-72 hrs. A general note: Formazan colour is commonly taken as a measure of viable cells.
In data set [7] the test system is RAW264.7. The data set is described as follows: Inhibition of NF-kappaB phosphorylation in LPS-stimulated mouse RAW264.7 cells at 2 to 30 uM preincubated with compound for 1 hrs followed by LPS-stimulation and measured after 30 mins by Western blot analysis. Format: cell-based. Particulars: dose 2-30 µM, time 1.5 hrs.
Data set [8] has as its target T4, Prostaglandin G/H synthase 2 (Homo sapiens, UniProt P35354).
T4 sequence (P35354 whole entry): T1 sequence (whole entry)
The data set can be described thus: Inhibition of recombinant human COX-2 using arachidonic acid as substrate preincubated with compound for 5 mins followed by substrate addition and measured after 2 mins by fluorescence spectrum analysis.

In data set [9] the test system is L929. The data set can be described thus: Cytotoxicity against mouse L929 cells assessed as reduction in cell survival upto 50 uM incubated for 48 to 72 hrs by MTT assay. Format: toxicity, cell-based. Conditions: l929, 50 µM, time 48-72 hrs.
Data set [10] deals with RAW264.7. The data set is described as follows: Anti-inflammatory activity in mouse RAW264.7 cells assessed as decrease in LPS-induced IL-1beta production incubated for 24 hrs by ELISA analysis. The format is functional, cell-based. Particulars: dose 2-30 µM.
Data set [11] has as its system RAW264.7. The data set can be described thus: Cytotoxicity against mouse RAW264.7 cells assessed as reduction in cell survival upto 50 uM incubated for 48 to 72 hrs by MTT assay. Format: toxicity, cell-based. Particulars: raw264.7, 50 µM, time 48-72 hrs.
In data set [12] the test system is RAW264.7. The data set can be described thus: Effect of NF-kappaB protein level in LPS-stimulated mouse RAW264.7 cells at 2 to 30 uM preincubated with compound for 1 hrs followed by LPS-stimulation and measured after 30 mins by Western blot analysis. The format is functional, cell-based. Particulars: dose 2-30 µM, time 1.5 hrs.
For data set [13], the system named is L02. The data set is described as follows: Cytotoxicity against human L02 cells assessed as reduction in cell survival at 10 uM incubated for 24 hrs by MTT assay. The format is toxicity, cell-based. Particulars: l02, 24 h.
The test system of data set [14] is RAW264.7. The data set is described as follows: Anti-inflammatory activity in mouse RAW264.7 cells assessed as decrease in LPS-induced TNF-alpha production incubated for 24 hrs by ELISA analysis. Format: functional, cell-based. Conditions: dose 2-30 µM.
Data set [15] has as its system RAW264.7. The data set is described as follows: Anti-inflammatory activity in mouse RAW264.7 cells assessed as decrease in LPS-induced IL-6 production incubated for 24 hrs by ELISA analysis. The format is functional, cell-based. Particulars: dose 2-30 µM.
The subject of data set [16] is RAW264.7. The data set is described as follows: Anti-inflammatory activity in mouse RAW264.7 cells assessed as decrease in LPS-induced COX-2 protein expression incubated for 24 hrs by Western blot analysis. Format: functional, cell-based. Conditions: dose 2-10 µM.
The target of data set [17] is T5, Prostaglandin G/H synthase 2 (Mus musculus) (UniProt Q05769).
T5 sequence (whole entry): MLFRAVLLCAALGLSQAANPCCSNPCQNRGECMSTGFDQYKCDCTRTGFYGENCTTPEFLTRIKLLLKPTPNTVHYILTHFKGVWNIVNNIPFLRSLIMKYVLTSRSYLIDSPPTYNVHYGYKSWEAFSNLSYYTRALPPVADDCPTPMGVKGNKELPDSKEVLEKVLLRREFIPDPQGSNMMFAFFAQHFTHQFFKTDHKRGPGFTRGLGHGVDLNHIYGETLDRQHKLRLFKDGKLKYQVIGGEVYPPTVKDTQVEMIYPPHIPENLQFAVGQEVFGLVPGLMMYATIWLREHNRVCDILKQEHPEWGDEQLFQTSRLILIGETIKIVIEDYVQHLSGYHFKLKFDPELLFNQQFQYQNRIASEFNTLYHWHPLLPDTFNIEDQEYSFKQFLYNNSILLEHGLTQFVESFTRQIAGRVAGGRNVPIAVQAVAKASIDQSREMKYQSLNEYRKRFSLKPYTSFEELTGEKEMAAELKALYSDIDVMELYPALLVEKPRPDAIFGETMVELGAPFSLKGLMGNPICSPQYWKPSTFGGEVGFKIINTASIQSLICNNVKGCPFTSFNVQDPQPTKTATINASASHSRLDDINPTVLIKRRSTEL
The data set can be described thus: Inhibition of COX-2 in mouse RAW264.7 cells assessed as suppression of LPS-induced PGE2 production at 2 to 30 uM incubated for 24 hrs by ELISA analysis. The format is cell-based. Particulars: dose 2-30 µM.

Data set [18] addresses T6, Prostaglandin G/H synthase 1 (Ovis aries, UniProt P05979).
T6 sequence (P05979 whole entry): T2 sequence (whole entry)
The data set can be described thus: Inhibition of ovine COX-1 using arachidonic acid as substrate preincubated with compound for 5 mins followed by substrate addition and measured after 2 mins by fluorescence spectrum analysis.

Data set [19] concerns RAW264.7. The data set can be described thus: Anti-inflammatory activity in mouse RAW264.7 cells assessed as decrease in LPS-induced iNOS protein expression incubated for 24 hrs by Western blot analysis. Conditions: dose 2-10 µM. Format: functional, cell-based.
Data set [20] deals with RAW264.7. The data set can be described thus: Cytotoxicity against mouse RAW264.7 cells assessed as reduction in cell survival at 10 uM incubated for 24 hrs by MTT assay. The format is toxicity, cell-based. Particulars: raw264.7, 24 h.
Data set [21] relates to L929. The data set is described as follows: Cytotoxicity against mouse L929 cells assessed as reduction in cell survival at 10 uM incubated for 24 hrs by MTT assay. The format is toxicity, cell-based. Conditions: l929, 24 h.
In data set [22] the target is T7, Prostaglandin G/H synthase 2 (Ovis aries, UniProt P79208).
T7 sequence (P79208 whole entry): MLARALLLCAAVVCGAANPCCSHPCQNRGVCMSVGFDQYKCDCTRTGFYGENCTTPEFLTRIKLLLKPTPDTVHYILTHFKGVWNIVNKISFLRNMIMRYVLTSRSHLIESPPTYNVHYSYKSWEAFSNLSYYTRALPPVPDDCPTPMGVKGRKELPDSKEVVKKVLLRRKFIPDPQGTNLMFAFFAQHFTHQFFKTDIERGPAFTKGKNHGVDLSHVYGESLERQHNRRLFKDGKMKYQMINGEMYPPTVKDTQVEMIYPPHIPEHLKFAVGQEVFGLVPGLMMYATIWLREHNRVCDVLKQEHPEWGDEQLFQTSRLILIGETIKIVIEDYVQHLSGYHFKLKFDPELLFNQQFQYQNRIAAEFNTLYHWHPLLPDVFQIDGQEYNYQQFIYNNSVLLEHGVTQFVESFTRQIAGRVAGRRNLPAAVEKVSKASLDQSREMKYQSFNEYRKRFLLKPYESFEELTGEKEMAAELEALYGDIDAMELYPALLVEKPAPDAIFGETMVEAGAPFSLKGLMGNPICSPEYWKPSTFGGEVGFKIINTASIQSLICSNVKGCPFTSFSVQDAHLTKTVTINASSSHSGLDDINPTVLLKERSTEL
The data set can be described thus: Inhibition of ovine COX-2 assessed as reduction in PGF2alpha production by enzyme immunoassay.

Regarding `CCOC(=O)[C@H](CO)NC(=O)c1ccccc1O`, the inhibition result in [1] and in data set [2] was “Active” throughout.

In the case of `CCOC(=O)[C@H](CO)NC(=O)c1cccc(O)c1`, the inhibition entry in [1] and in data set [2] was “Active” in each case.

With `CCOC(=O)[C@H](CO)NC(=O)c1ccc(O)cc1`, the inhibition entry in data set [1] and in [2] was “Active” throughout.

What is called pIC50 is the negative decadic logarithm of the IC50, by convention in mol/L. For `CCOC(=O)[C@H](CO)NC(=O)c1cccc(O)c1O`, the inhibition entry (in data set [3]; with RAW264.7 [4]) was “Dose-Dependent Effect” in each case. For the same compound, the Activity result in the data set with RAW264.7 [5] was “Dose-Dependent Effect”; in the data set with L02 [6], “Toxic”; with L929 [9], “Toxic”; with RAW264.7 [10], “Dose-Dependent Effect”; in the data set with RAW264.7 [11], “Toxic”; in the data set with L02 [13], “Non-Toxic”. Moreover, the Activity result in the data set with RAW264.7 [14] was “Dose-Dependent Effect”; in the data set on RAW264.7 [15] it was “Dose-Dependent Effect”; with RAW264.7 [16] it was “Dose-Dependent Effect”; with RAW264.7 [19], “Dose-Dependent Effect”; in the data set with RAW264.7 [20], “Non-Toxic”; in the data set on L929 [21], “Non-Toxic”. The inhibition result (in the data set with RAW264.7 [7]; in [17]) was “Active” in each case. The negative logarithm of the IC50 (pIC50) in data set [8] is 5.65; in data set [18], 5.05; in data set [22], 5.55. For the same compound, the result in the data set on RAW264.7 [12] was inactive.

On to `CCOC(=O)[C@H](CO)NC(=O)c1ccccc1`, for which the inhibition result in data set [1] and in data set [2] was “Active” in each case.
